Results taken from patent publication US6046217A, “2,3,5-trisubstituted pyridines as inhibitors of cyclooxygenase-2” (Merck Frosst Canada & Co., priority 1998, dated 2000).
Like-named read-outs stand apart in the source and are kept apart here.

Assays:
COX-1 [1] = target: T1, COX-1 (Homo sapiens, UniProt P23219); assay: Human whole blood assay, COX-1 (clotting-induced TxB2 production); format: cell-based; set-up: platelets in whole blood contain a large amount of the COX-1 enzyme; endogenous in cells; host or cells: platelets in fresh human whole blood, clotting; conditions: human whole blood, clotting-induced TxB2, 1 h; read-out: COX-1 (IC50 mM) HWB
T1 sequence (P23219 24-599): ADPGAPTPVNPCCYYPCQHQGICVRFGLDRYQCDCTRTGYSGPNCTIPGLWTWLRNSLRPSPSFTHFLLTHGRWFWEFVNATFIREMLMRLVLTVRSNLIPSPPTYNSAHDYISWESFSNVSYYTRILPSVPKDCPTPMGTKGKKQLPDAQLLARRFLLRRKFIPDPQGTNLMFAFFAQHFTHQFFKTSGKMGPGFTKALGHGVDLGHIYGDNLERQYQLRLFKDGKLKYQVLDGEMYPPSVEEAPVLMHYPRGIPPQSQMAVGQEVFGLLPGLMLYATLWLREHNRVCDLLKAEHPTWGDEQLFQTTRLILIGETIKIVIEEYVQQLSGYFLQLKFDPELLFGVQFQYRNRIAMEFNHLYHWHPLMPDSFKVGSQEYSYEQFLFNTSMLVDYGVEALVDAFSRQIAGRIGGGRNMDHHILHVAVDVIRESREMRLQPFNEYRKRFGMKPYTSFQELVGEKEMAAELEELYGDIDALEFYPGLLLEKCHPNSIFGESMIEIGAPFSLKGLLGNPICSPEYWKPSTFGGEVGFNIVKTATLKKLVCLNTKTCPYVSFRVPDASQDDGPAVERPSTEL
From the text: (§1) As well, platelets in whole blood contain a large amount of the COX-1 enzyme. Immediately following blood clotting, platelets are activated through a thrombin-mediated mechanism. This reaction results in the production of thromboxane B2 (TxB2) via activation of COX-1. Thus, the effect of test compounds on TxB2 levels following blood clotting can be examined and used as an index for COX-1 activity. Therefore, the degree of selectivity by the test compound can be determined by measuring the levels of PGE2 after LPS induction (COX-2) and TxB2 following blood clotting (COX-1) in the same assay.
Fresh blood is collected into vacutainers containing no anticoagulants. […] The tubes are vortexed and incubated at 37° C. for 1 hour to allow blood to clot. At the end of incubation, serum is obtained by centrifugation (12,000×g for 5 min.). A 100 μL aliquot of serum is mixed with 400 μL of methanol for protein precipitation.

COX-2 [2] = target: T2, COX-2 (Homo sapiens, UniProt P35354); assay: cell-based; conditions: CHO[hCOX-2] cells, 10 μM AA, 15 min preincubation; read-out: COX-2 (IC50 mM) CHO
T2 sequence (P35354 18-604): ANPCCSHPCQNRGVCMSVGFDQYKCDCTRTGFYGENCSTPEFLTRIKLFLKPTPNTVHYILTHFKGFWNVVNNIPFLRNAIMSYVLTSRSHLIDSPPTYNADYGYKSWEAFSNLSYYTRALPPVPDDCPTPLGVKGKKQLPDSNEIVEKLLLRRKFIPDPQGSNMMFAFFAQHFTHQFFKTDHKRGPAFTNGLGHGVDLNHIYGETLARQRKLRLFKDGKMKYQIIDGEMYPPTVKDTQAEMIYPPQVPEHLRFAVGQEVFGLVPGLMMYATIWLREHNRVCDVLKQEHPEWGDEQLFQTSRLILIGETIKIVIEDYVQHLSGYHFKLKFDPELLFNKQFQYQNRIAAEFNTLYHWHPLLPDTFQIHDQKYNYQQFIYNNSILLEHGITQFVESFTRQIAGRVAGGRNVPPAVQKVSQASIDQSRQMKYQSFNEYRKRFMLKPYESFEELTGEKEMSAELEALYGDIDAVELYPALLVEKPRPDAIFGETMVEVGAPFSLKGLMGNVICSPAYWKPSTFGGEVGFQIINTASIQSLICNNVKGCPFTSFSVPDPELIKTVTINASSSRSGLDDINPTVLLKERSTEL
Description: For cyclooxygenase assays, CHO[hCOX-1] cells from suspension cultures and CHO[hCOX-2] cells prepared by trypsinization of adherent cultures are harvested by centrifugation (300×g, 10 min) and washed once in HBSS containing 15 mM HEPES, pH 7.4, and resuspended in HBSS, 15 mM HEPES, pH 7.4, at a cell concentration of 1.5×10^6 cells/ml. Drugs to be tested are dissolved in DMSO to 66.7-fold the highest test drug concentration. […] Cells (0.3×10^6 cells in 200 μl) are preincubated with 3 μl of the test drug or DMSO vehicle for 15 min at 37° C. Working solutions of peroxide-free AA (5.5 μM and 110 μM AA for the CHO [hCOX-1] and CHO [COX-2] assays, respectively) are prepared by a 10-fold dilution of a concentrated AA solution in ethanol into HBSS containing 15 mM HEPES, pH 7.4. Cells are then challenged in the presence or absence of drug with the AA/HBSS solution to yield a final concentration of 0.5 μM AA in the CHO[hCOX-1] assay and a final concentration of 10 μM AA in the CHO[hCOX-2] assay. The reaction is terminated by the addition of 10 μl 1 N HCl followed by neutralization with 20 μl of 0.5 N NaOH. The samples are centrifuged at 300 ×g at 4° C. for 10 min, and an aliquot of the clarified supernatant is appropriately diluted for the determination of PGE2 levels using an enzyme-linked immunoassay for PGE2 (Correlate PGE2 enzyme immunoassay kit, Assay Designs, Inc.). Cyclooxygenase activity in the absence of test compounds is determined as the difference in PGE2 levels of cells challenged with arachidonic acid versus the PGE2 levels in cells mock-challenged with ethanol vehicle. Inhibition of PGE2 synthesis by test compounds is calculated as a percentage of the activity in the presence of drug versus the activity in the positive control samples.

COX-1 [3] = target: T1, COX-1; assay: Assay of COX-1 activity from U937 cell microsomes (PGE2); format: biochemical; set-up: Assay of COX-1 Activity from U937 Cell Microsomes; endogenous in cells; host or cells: U937 cells, 100,000 x g microsomal pellet; conditions: U-937 cell microsomes, 15 min preincubation; read-out: COX-1 (IC50 mM) U-937
Description: U 937 cells are pelleted by centrifugation at 500×g for 5 min and washed once with phosphate-buffered saline and repelleted. Cells are resuspended in homogenization buffer consisting of 0.1 M Tris-HCl, pH 7.4, 10 mM EDTA, […] leupeptin, 2 μg/ml soybean trypsin inhibitor, 2 μg/ml aprotinin and 1 mM phenyl methyl sulfonyl fluoride. The cell suspension is sonicated 4 times for 10 sec and is centrifuged at 10,000×g for 10 min at 4° C. The supernatant is centrifuged at 100,000×g for 1 hr at 4° C. The 100,000×g microsomal pellet is resuspended in 0.1 M Tris-HCl, pH 7.4, 10 mM EDTA to approximately 7 mg protein/ml and stored at -80° C.
Microsomal preparations are thawed immediately prior to use, subjected to a brief sonication, and then diluted to a protein concentration of 125 μg/ml in 0.1 M Tris-HCl buffer, pH 7.4 containing 10 mM EDTA, 0.5 mM phenol, 1 mM reduced glutathione and 1 μM hematin. Assays are performed in duplicate in a final volume of 250 μl. Initially, 5 μl of DMSO vehicle or drug in DMSO are added to 20 μl of 0.1 M Tris-HCl buffer, pH 7.4 containing 10 mM EDTA in wells of a 96-deepwell polypropylene titre plate. 200 μl of the microsomal preparation are then added and pre-incubated for 15 min at room temperature before addition of 25 μl of […] arachidonic acid in […] Tris-HCl and 10 mM EDTA, pH 7.4. Samples are incubated for 40 min at room temperature and the reaction is stopped by the addition of 25 μl of 1 N HCl. Samples are neutralized with 25 μl of 1 N NaOH prior to quantitation of PGE2 content by radioimmunoassay (Dupont-NEN or Amersham assay kits). Cyclooxygenase activity is defined as the difference between PGE2 levels in samples incubated in the presence of arachidonic acid and ethanol vehicle.
In the assay, inhibition is determined by measuring the amount of prostaglandin E2 (PGE2) synthesized in the presence of arachidonic acid, cyclooxygenase-1 or cyclooxygenase-2 and a putative inhibitor.

COX-2 [4] = target: T2, COX-2; assay: cell-based; conditions: human whole blood, LPS-induced PGE2, 24 h; read-out: COX-2 (IC50 mM) HWB
From the text: as §1
Fresh blood is collected in heparinized tubes by venipuncture from both male and female volunteers. The subjects have no apparent inflammatory conditions and have not taken any NSAIDs for at least 7 days prior to blood collection. Plasma is immediately obtained from a 2mL blood aliquot to use as blank (basal levels of PGE2). The remaining blood is incubated with LPS (100 μg/ml final concentration, Sigma Chem, #L-2630 from E. coli; diluted in 0.1% BSA (Phosphate buffered saline) for 5 minutes at room temperature. Five hundred […] aliquots of blood are incubated with either 2 μL of vehicle (DMSO) or 2 μL of a test compound at final concentrations varying from 10 nM to 30 μM for 24 hours at 37° C. At the end of the incubation, the blood is centrifuged at 12,000×g for 5 minutes to obtain plasma. A 100 μL aliquot of plasma is mixed with 400 μL of methanol for protein precipitation. The supernatant is obtained and is assayed for PGE2 using a radioimmunoassay kit (Amersham, RPA#530) after conversion of PGE2 to its methyl oximate derivative according to the manufacturer's procedure. […]

| SMILES | IC50 (COX-1 [1]) [mM] | IC50 (COX-2 [2]) [µM] | IC50 (COX-1 [3]) [mM] | IC50 (COX-2 [4]) [mM] |
| --- | --- | --- | --- | --- |
| C[C@@H](Oc1ncc(C(F)(F)F)cc1-c1ccc(S(C)(=O)=O)cc1)C(C)(C)O [Example 17, 2-((2R)-3-Hydroxy-3-methyl-2-butyloxy)-3-(4-methylsulfonyl)phenyl-5-trifluoromethylpyridine] | > 0.1 | 0.38 | > 0.01 | < 0.0004 |
| C[C@H](CO)Oc1ncc(C(F)(F)F)cc1-c1ccc(S(C)(=O)=O)cc1 [Example 28, 2-((2R)-1-Hydroxy-2-propyloxy)-3-(4-methylsulfonyl)phenyl-5-trifluoromethylpyridine] | > 0.1 | 0.04 | > 0.01 | 0.0112 |
| CC(C)(O)/C=C\c1ncc(Cl)cc1-c1ccc(S(C)(=O)=O)cc1 [Example 51, 5-Chloro-2-((Z)-3-Hydroxy-3-methyl-1-butenyl)-3-(4-methylsulfonyl)phenylpyridine] | 0.01 | 0.01 | 0.001 to 0.003 | 0.0008 |
| CCC(O)(CC)[C@@H](C)Oc1ncc(C(F)(F)F)cc1-c1ccc(S(C)(=O)=O)cc1 [Example 21, 2-((2R)-3-Ethyl-3-hydroxy-2-pentyloxy)-3-(4-methylsulfonyl)phenyl-5-trifluoromethylpyridine] | > 0.1 | 0.2 | > 0.01 | 0.0047 |
